Experimental data taken from patent US20230288433A1, “DETECTION OF PHOSPHOINOSITIDES IN BLOOD CELLS AS A BIOMARKER FOR ALPHA SYNUCLEIN ASSOCIATED PATHOLOGIES AND A METHOD OF TREATMENT OF PARKINSON'S DISEASE AND THE RELATED NEURODEGENERATIONS” (YISSUM RESEARCH DEVELOPMENT COMPANY OF THE HEBREW …, priority 2021, published 2023).

What was measured:
Format in all cases: cell-based
[1] = test system: α-Syn; assay: α-Syn expression by qPCR in Tet-on inducible SH-SY5Y cells; conditions: with versus without doxycycline for 72 hours
Experimental: FIGS. 4A-4J include micrographs and graphs showing that α-Syn effect to elongate axons and collaterals is mediated through PI4,5P2. (4A) PI4,5P2 levels determined by FACS, in HEK 293T cells, following 48 hours from cell transfection with α-Syn and/or Sj-1 phosphatase, as indicated. Mean±SD of two independent experiments, n>3,000 cells in each treatment; P<0.05, one-way ANOVA. (4B) PI4,5P2 levels determined by FACS in HEK 293T cells transfected with α-Syn and/or PIPKIγ as indicated. Mean±SD of two independent experiments, n>3,000 cells in each treatment; P<0.05, one-way ANOVA. […] GFP signal was captured by direct fluorescence. […] (4E) Total length of collaterals per axon (in μm); and (4F) PI4,5P2 levels within the axon and its collaterals (per axon area) quantified by Fiji program. […] Western blot showing mCherry Nir2 signal detected with anti Nir2 ab (Abcam). PI4,5P2 levels determined by FACS. […] PI4,5P2 levels determined by FACS. […] (4I) Quantitative PCR (qPCR) detection of α-Syn following its induced expression in SH-SYSY cells without and with the addition of doxycycline for 72 hours. α-Syn mRNA levels normalized to the levels of G6PD gene detected in the same sample. (4J) Quantitative detection of NIR2 expression by qPCR in these cells. […]

[2] = test system: SH-SY5Y cells; assay: PI4,5P2 levels by FACS in Tet-on inducible α-Syn SH-SY5Y cells
Experimental: Analysis was performed as previously described with some modifications. Cells were suspended and washed in clear DMEM; followed by 20 minutes fixation in 2% (v/w) paraformaldehyde at 4° C.; and permeabilization in 0.2% saponin in 1% BSA (w/v) for 15 minutes at 4° C. Cells were then incubated with anti α-Syn antibody (MJFR1, 1:2,000) and anti PI4,5P2 antibody (1:200, see Table 2) for 90 minutes at 4° C. with gentle rolling; washed and probed with the respective secondary antibody for 30 minutes at room temperature. FACS analysis in SK-mel2 cells was performed 7-14 days following viral transduction. During this time effective α-Syn knockdown was confirmed using rt-PCR and Western blotting. HEK 293T cells were analyzed by FACS forty-eight hours from transfection. Analyses were performed using BD LSRFortessa Cell Analyzer, equipped with 5 lasers (355, 405, 488, 561 and 640 nm) and the FLOWJO, LLC software. Mock-GFP, Sj-1 or PIPKIγ expression were directly detected at 488 nm based on a GFP-tag. […] A total of 2,000-4,000 gated cells were counted in each experiment unless indicated differently.
To test the mechanism through which α-Syn increases cellular PI4,5P2 levels, the inventors tested the potential involvement of Nir2-expression. […] 72 hours post DNA transfection, PI4,5P2 levels were determined by FACS. […] PI4,5P2 levels were determined by FACS following 3 days of incubation with doxycycline. […]

[3] = test system: SH-SY5Y cells; assay: 568-Tf endocytosis by ICC in Tet-on inducible α-Syn SH-SY5Y cells; conditions: doxycycline 72 hours; cells not induced set at 100%

In the case of `C[C@H]1c2cccc(O)c2C(=O)C2=C(O)[C@]3(O)C(=O)C(C(N)=O)=C(O)[C@@H](N(C)C)[C@@H]3[C@@H](O)[C@@H]21` [doxycycline], the “α-Syn levels of expression” value [1] is reported as about 25 folds, the “PI4,5P2 signal” value ([2]; FACS after 3 days of doxycycline, shCntrl cells) is reported as about 146% and the “PI4,5P2 levels” value ([2]; doxycycline 72 hours, cells not induced set at 100%) is reported as 151%. The “internalization of 568-Tf” value [3] was 133%.
